Values belong to the compound of their own block, whether it stands above or below them.
Columns and labels:
Format in all cases: in vivo
Pansy plants [1] = assay: Pansy shelf life under drought (daily wilting rating, sales index)
Protocol: (§1) All studies were conducted in the greenhouse at the research farm of Valent BioSciences Corporation (Long Grove, Ill.). Pansy plants were obtained either from local retailers as mature plants, or plugs from wholesale nurseries. Plugs of Pansy plants were transplanted into an 18-cell flat filled with Promix BX (available from Premier Horticulture Inc. Quakertown, Pa.) and grown for about 30 days prior to treatment. During growing periods, plants received daily irrigation and weekly fertilizer (1 g/L all purpose fertilizer 20-20-20, The Scotts Company, Marysville, Ohio).
(§2) Uniform plants were selected for the study. Prior to chemical treatment, plants were saturated with water and then drained for about two hours. A total of 20 mL chemical solution, which is equivalent to about 10% of the cell volume, was applied to each plant with 3 mL solution foliar applied to canopy and 17 mL solution drench applied to root zone. Unless specified, watering of plants was stopped after chemical treatment.
(§3) After chemical treatment, plants were arranged in a randomized complete block experimental design. The plants were rated daily for the extent of wilting on a scale from 1 (no wilting) to 4 (complete wilting) to generated a sales index rating. A rating of 2.5 was the point at which a plant was determined to be unmarketable and the previous day was recorded as the shelf life of that plant in days. Yellow leaf number was counted at 3 days after chemical treatment. Leaf transpiration rate was measured after treatment using a LI-1600 Steady State Porometer (LI-Cor, Lincoln, Nebr.). The transpiration rate of each treatment was calculated as the percentage of that of control at each day to reduce day-to-day variation caused by changes of environmental condition such as light intensity, humidity, and temperature.

Pansy plants [2] = assay: Plant elongation after gibberellin treatment; conditions: 0.1 mg or 1 mg per plant; Delta Premium Pure White
Source text: GA4/7 reduced the number of yellow leaves more than GA3.

Pansy plants [3] = assay: Pansy yellow leaf number (leaf yellowing)
Protocol: as §1, §2
as §3, with “Yellow leaf number was counted at 3 days after chemical treatment.” left out

Pansy plants [4] = assay: Pansy leaf transpiration rate (LI-1600 Steady State Porometer); conditions: for Transpiration rate (% of control): Matrix Premium Rose, Table 16; for Transpiration inhibition: sufficient water
Protocol: as §2, §3

SMILES: C=C1C[C@]23C[C@@]1(O)CC[C@H]2[C@@]12C=C[C@H](O)[C@@](C)(C(=O)O1)[C@H]2[C@@H]3C(=O)O [GA3, gibberellin A3]
Shelf life (Pansy plants [1]; 0.1 mg, Delta Premium Pure White, Table 24): 4.3 days
Shelf life (Pansy plants [1]; 1 mg, Delta Premium Pure White, Table 24): 4.0 days
Effect on plant elongation (Pansy plants [2]): no apparent effect
Yellow leaf number (Pansy plants [3]; 0.1 mg, Delta Premium Pure White, 3 days after treatment, Table 24): 1.3
Yellow leaf number (Pansy plants [3]; 0.1 mg, Delta Premium Pure White, 7 days after treatment, Table 24): 3.8
Yellow leaf number (Pansy plants [3]; 1 mg, Delta Premium Pure White, 3 days after treatment, Table 24): 1.2
Yellow leaf number (Pansy plants [3]; 1 mg, Delta Premium Pure White, 7 days after treatment, Table 24): 3.7

Yellow leaf number (Pansy plants [3]; 0.1 mg, Matrix Orange, drought, 3 d after treatment, Table 1): 3
Yellow leaf number (Pansy plants [3]; 0.3 mg, Clear Sky Yellow, drought, 3 d after treatment, Table 8): 2.8
Yellow leaf number (Pansy plants [3]; 0.3 mg, Crown Azure Blue, drought, 3 d after treatment, Table 9): 4.8
Yellow leaf number (Pansy plants [3]; 0.3 mg, Matrix Orange, drought, 3 d after treatment, Table 1): 5
Yellow leaf number (Pansy plants [3]; 0.3 mg, Matrix Orange, drought, 3 d after treatment, Table 2): 9.0
Yellow leaf number (Pansy plants [3]; 0.3 mg, Matrix Yellow, drought, 3 d after treatment, Table 7): 9.7
Yellow leaf number (Pansy plants [3]; 1 mg, Matrix Orange, drought, 3 d after treatment, Table 1): 7
Yellow leaf number (Pansy plants [3]; 3 mg PBI-429, no water, Whispers White, 3 d after treatment, Table 15): 23.3
Yellow leaf number (Pansy plants [3]; 3 mg, Clear Sky Yellow, drought, 3 d after treatment, Table 8): 4.8
Yellow leaf number (Pansy plants [3]; 3 mg, Crown Azure Blue, drought, 3 d after treatment, Table 9): 7.7
Yellow leaf number (Pansy plants [3]; 3 mg, Matrix Orange, drought, 3 d after treatment, Table 1): 10
Yellow leaf number (Pansy plants [3]; 3 mg, Matrix Yellow, drought, 3 d after treatment, Table 7): 13.2
SMILES: C#CC1(C)CC(=O)C=C(C)C1(O)/C=C/C(C)=C\C(=O)OC (stereo not drawn) [PBI-429, 8′ acetylene-ABA methyl ester]
Shelf life (Pansy plants [1]; 0.1 mg, Matrix Orange, drought, Table 1): 5.5 days
Shelf life (Pansy plants [1]; 0.3 mg PBI-429, no water, Whispers White, Table 15): 3.8 days
Shelf life (Pansy plants [1]; 0.3 mg, Clear Sky Yellow, drought, Table 8): 6.5 days
Shelf life (Pansy plants [1]; 0.3 mg, Crown Azure Blue, drought, Table 9): 4.5 days
Shelf life (Pansy plants [1]; 0.3 mg, Matrix Orange, drought, Table 1): 5.8 days
Shelf life (Pansy plants [1]; 0.3 mg, Matrix Orange, drought, Table 2): 5.8 days
Shelf life (Pansy plants [1]; 0.3 mg, Matrix Yellow, drought, Table 7): 7.5 days
Shelf life (Pansy plants [1]; 1 mg, Matrix Orange, drought, Table 1): 7.0 days
Shelf life (Pansy plants [1]; 3 mg PBI-429, no water, Whispers White, Table 15): 7.2 days
Shelf life (Pansy plants [1]; 3 mg, Clear Sky Yellow, drought, Table 8): 8.7 days
Shelf life (Pansy plants [1]; 3 mg, Crown Azure Blue, drought, Table 9): 7.0 days
Shelf life (Pansy plants [1]; 3 mg, Matrix Orange, drought, Table 1): 8.3 days
Shelf life (Pansy plants [1]; 3 mg, Matrix Orange, drought, Table 2): 9.5 days
Shelf life (Pansy plants [1]; 3 mg, Matrix Yellow, drought, Table 7): 8.8 days
Transpiration rate (% of control) (Pansy plants [4]; 0.3 mg PBI-429, no water, day 1 after treatment): 34 % of control
Transpiration rate (% of control) (Pansy plants [4]; 0.3 mg PBI-429, no water, day 2 after treatment): 35 % of control
Transpiration rate (% of control) (Pansy plants [4]; 0.3 mg PBI-429, no water, day 3 after treatment): 26 % of control
Transpiration inhibition (Pansy plants [4]; 0.3 mg PBI-429, through 3 days after treatment): greater than 50%
Transpiration rate (% of control) (Pansy plants [4]; 0.3 mg PBI-429, watered, day 1 after treatment): 32 % of control
Transpiration rate (% of control) (Pansy plants [4]; 0.3 mg PBI-429, watered, day 2 after treatment): 33 % of control
Transpiration rate (% of control) (Pansy plants [4]; 0.3 mg PBI-429, watered, day 3 after treatment): 44 % of control
Transpiration rate (% of control) (Pansy plants [4]; 0.3 mg PBI-429, watered, day 4 after treatment): 68 % of control
Transpiration rate (% of control) (Pansy plants [4]; 0.3 mg PBI-429, watered, day 5 after treatment): 74 % of control
Transpiration rate (% of control) (Pansy plants [4]; 0.3 mg PBI-429, watered, day 7 after treatment): 81 % of control
Transpiration rate (% of control) (Pansy plants [4]; 0.3 mg PBI-429, watered, day 10 after treatment): 88 % of control
Transpiration rate (% of control) (Pansy plants [4]; 3 mg PBI-429, no water, day 1 after treatment): 23 % of control
Transpiration rate (% of control) (Pansy plants [4]; 3 mg PBI-429, no water, day 2 after treatment): 14 % of control
Transpiration rate (% of control) (Pansy plants [4]; 3 mg PBI-429, no water, day 3 after treatment): 9 % of control
Transpiration rate (% of control) (Pansy plants [4]; 3 mg PBI-429, no water, day 4 after treatment): 10 % of control
Transpiration rate (% of control) (Pansy plants [4]; 3 mg PBI-429, no water, day 5 after treatment): 18 % of control
Transpiration inhibition (Pansy plants [4]; 3 mg PBI-429, through 10 days after treatment): greater than 50%
Transpiration rate (% of control) (Pansy plants [4]; 3 mg PBI-429, watered, day 1 after treatment): 20 % of control
Transpiration rate (% of control) (Pansy plants [4]; 3 mg PBI-429, watered, day 2 after treatment): 15 % of control
Transpiration rate (% of control) (Pansy plants [4]; 3 mg PBI-429, watered, day 3 after treatment): 29 % of control
Transpiration rate (% of control) (Pansy plants [4]; 3 mg PBI-429, watered, day 4 after treatment): 28 % of control
Transpiration rate (% of control) (Pansy plants [4]; 3 mg PBI-429, watered, day 5 after treatment): 32 % of control
Transpiration rate (% of control) (Pansy plants [4]; 3 mg PBI-429, watered, day 7 after treatment): 44 % of control
Transpiration rate (% of control) (Pansy plants [4]; 3 mg PBI-429, watered, day 10 after treatment): 46 % of control
